Among the data in ChEMBL document CHEMBL4145625 (J Med Chem, 2018) are IC50 values, retold here.

The target of experiment [1] is Phosphatidylinositol 4,5-bisphosphate 3-kinase catalytic subunit alpha isoform (Homo sapiens, UniProt P42336). Nature of the experiment: Inhibition of PI3Kalpha (unknown origin) using PIP2 as substrate by Kinase-Glo assay. A general note: In Kinase-Glo more light means more ATP remaining.
Another experiment relates to NCI-H460. Nature of the experiment: cells. The class given is functional, cell-based. As to conditions: Homo sapiens, NCI-H460, 96 h.

Broadly, the IC50 is the concentration that gives 50% inhibition. Read a low IC50 as greater potency.

Chain of Phosphatidylinositol 4,5-bisphosphate 3-kinase catalytic subunit alpha isoform (P42336 whole entry, canonical isoform): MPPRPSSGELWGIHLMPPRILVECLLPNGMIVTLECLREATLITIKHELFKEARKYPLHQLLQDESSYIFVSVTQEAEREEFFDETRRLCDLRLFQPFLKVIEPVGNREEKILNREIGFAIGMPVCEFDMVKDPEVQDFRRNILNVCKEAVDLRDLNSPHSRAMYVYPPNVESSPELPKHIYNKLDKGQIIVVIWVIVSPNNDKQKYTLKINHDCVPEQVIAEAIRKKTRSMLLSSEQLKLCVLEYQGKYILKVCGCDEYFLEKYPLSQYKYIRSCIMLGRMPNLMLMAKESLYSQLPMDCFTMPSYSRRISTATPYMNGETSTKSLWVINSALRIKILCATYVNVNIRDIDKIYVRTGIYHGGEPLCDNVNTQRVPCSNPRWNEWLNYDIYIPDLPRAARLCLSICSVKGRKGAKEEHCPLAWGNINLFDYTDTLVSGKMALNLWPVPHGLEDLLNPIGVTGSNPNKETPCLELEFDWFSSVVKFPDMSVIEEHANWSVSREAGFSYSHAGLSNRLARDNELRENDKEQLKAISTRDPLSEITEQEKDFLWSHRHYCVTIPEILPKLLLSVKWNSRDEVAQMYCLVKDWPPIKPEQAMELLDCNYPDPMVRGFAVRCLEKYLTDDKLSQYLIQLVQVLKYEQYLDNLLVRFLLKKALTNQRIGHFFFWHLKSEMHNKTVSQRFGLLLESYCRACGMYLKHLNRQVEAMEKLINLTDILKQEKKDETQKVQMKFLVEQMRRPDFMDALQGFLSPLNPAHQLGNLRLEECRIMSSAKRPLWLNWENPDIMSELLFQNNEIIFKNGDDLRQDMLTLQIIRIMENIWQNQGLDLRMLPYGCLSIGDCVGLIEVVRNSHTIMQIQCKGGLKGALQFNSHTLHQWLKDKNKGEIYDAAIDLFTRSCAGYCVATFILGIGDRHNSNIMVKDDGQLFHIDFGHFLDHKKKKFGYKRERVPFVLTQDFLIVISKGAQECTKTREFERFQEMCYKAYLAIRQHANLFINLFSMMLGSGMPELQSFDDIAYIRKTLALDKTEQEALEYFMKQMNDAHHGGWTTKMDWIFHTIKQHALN
Description for NCI-H460: Cytotoxicity against human NCI-H460 cells after 96 hrs by MTT assay

With `COc1ncc(-c2cc(OC3CCC3)c3nc(N)nc(C)c3c2)cc1NS(=O)(=O)c1ccc(F)cc1F`, in experiment [1], half-maximal inhibition (IC50) required 0.95 nM.
On to `COc1ncc(-c2cc(OC3CCOCC3)c3nc(N)nc(C)c3c2)cc1NS(C)(=O)=O`, for which the figures for the half-maximal inhibitory concentration (IC50) (in the experiment with NCI-H460; in experiment [1]) were 860 nM and 2.6 nM, respectively.
Take `COCCOc1cc(-c2cnc(OC)c(NS(=O)(=O)c3ccc(F)cc3F)c2)cc2c(C)nc(N)nc12`: in the experiment with NCI-H460, the half-inhibitory concentration (IC50) was 200 nM.
`COc1ncc(-c2cc(OCC3CCOC3)c3nc(N)nc(C)c3c2)cc1NS(=O)(=O)c1ccc(F)cc1F` (stereo unspecified) gave an IC50 in experiment [1] of 1.2 nM.
On to `COc1ncc(-c2cc3c(C)nc(N)nc3n([C@H]3CC[C@H](OCCO)CC3)c2=O)cc1NS(=O)(=O)c1ccc(F)cc1F`, for which the IC50 with NCI-H460 is 360 nM; in experiment [1] it was 0.87 nM.
The corresponding values for `COc1ccc(-c2cc(OC3CCOCC3)c3nc(N)nc(C)c3c2)cn1` are 980 nM and 31 nM.
In the case of `COc1ncc(-c2cc(OC3CCOCC3)c3nc(NC(C)=O)nc(C)c3c2)cc1NS(C)(=O)=O`, the results for the IC50 (with NCI-H460; in experiment [1]) were 3200 nM and 11 nM, respectively.
The corresponding values for `COc1ncc(-c2cc(OC(C)C)c3nc(N)nc(C)c3c2)cc1NS(=O)(=O)c1ccc(F)cc1F` are 140 nM and 0.7 nM.
`CNc1nc(C)c2cc(-c3cnc(OC)c(NS(=O)(=O)c4ccc(F)cc4F)c3)cc(OC3CCCC3)c2n1` had an IC50 in experiment [1] of 6.6 nM.
`Cc1nc(N)nc2c(OC3CCOCC3)cc(-c3cnc(Cl)c(NS(=O)(=O)c4ccc(F)cc4)c3)cc12`: the half-maximal inhibitory concentration (IC50) came out at 1200 nM in the experiment with NCI-H460 and 1.7 nM in experiment [1].
The like results for `COc1ncc(-c2cc(OC3CCN(C)CC3)c3nc(N)nc(C)c3c2)cc1NS(=O)(=O)c1ccc(F)cc1F` were, in that order, 660 nM and 4.8 nM.
The corresponding values for `COc1ncc(-c2cc(OC3CCOCC3)c3nc(N)nc(C)c3c2)cc1NS(=O)(=O)C1CC1` are 930 nM and 2.5 nM.
With `CNc1nc(C)c2cc(-c3cnc(OC)c(NS(=O)(=O)c4ccc(F)cc4F)c3)cc(OCC3CCOC3)c2n1` (stereo unspecified), the half-maximal inhibitory concentration (IC50) in the experiment on NCI-H460 was 310 nM; in experiment [1], 2 nM.
Consider `COc1ncc(-c2cc(OCC3CC3)c3nc(N)nc(C)c3c2)cc1NS(=O)(=O)c1ccc(F)cc1F`, for which the figures for the 50% inhibitory concentration (IC50) (with NCI-H460; in experiment [1]) were 200 nM and 1.4 nM, respectively.
Take `COc1ncc(-c2cc(OC)c3nc(N)nc(C)c3c2)cc1NS(=O)(=O)c1ccc(F)cc1F`: the midpoint of inhibition in the experiment with NCI-H460, the IC50, lay at 280 nM.
With `COc1ncc(-c2cc(OCC3CCOCC3)c3nc(N)nc(C)c3c2)cc1NS(=O)(=O)c1ccc(F)cc1F`, the half-maximal inhibitory concentration (IC50) in the experiment on NCI-H460 stood at 21 nM; in experiment [1], 0.73 nM.
`COc1ncc(-c2cc(OCC3CCCO3)c3nc(N)nc(C)c3c2)cc1NS(=O)(=O)c1ccc(F)cc1F` (stereo unspecified): the half-inhibitory concentration (IC50) in experiment [1] amounted to 1.1 nM.
Turning to `COc1ncc(-c2cc(OC3CCOCC3)c3nc(NC(C)=O)nc(C)c3c2)cc1NS(=O)(=O)c1ccc(F)cc1F`, the IC50 in the experiment on NCI-H460 was determined as 53 nM; in experiment [1] it was 1.4 nM.
As for `CNc1nc(C)c2cc(-c3cnc(OC)c(NS(=O)(=O)c4ccc(F)cc4F)c3)cc(O[C@H]3CCOC3)c2n1`, inhibition in experiment [1] was half-maximal at 1.4 nM (IC50).
As to `CNc1nc(C)c2cc(-c3cnc(OC)c(NS(=O)(=O)c4ccc(F)cc4F)c3)cc(OC3CCCCC3)c2n1`, the concentration for half-maximal inhibition (IC50) in the experiment with NCI-H460 was determined as 1700 nM; in experiment [1], 9.8 nM.
The corresponding values for `CNc1nc(C)c2cc(-c3cnc(OC)c(NS(=O)(=O)c4ccc(F)cc4F)c3)cc(OC3CCOC(C)(C)C3)c2n1` (stereo unspecified) are 250 nM and 1.8 nM.
For the molecule `COc1ncc(-c2cc(OC3CCOCC3)c3nc(N)nc(C)c3c2)cc1NS(=O)(=O)c1ccc(Cl)s1`, the IC50 in experiment [1] was found to be 1.1 nM.
As for `COc1ncc(-c2cc(OC3CCOCC3)c3nc(N(C)C)nc(C)c3c2)cc1NS(=O)(=O)c1ccc(F)cc1F`, the IC50 with NCI-H460 is 4300 nM; in experiment [1], 125 nM.
The corresponding values for `COc1ncc(-c2cc(OC3CCOCC3)c3nc(NCC4CC4)nc(C)c3c2)cc1NS(=O)(=O)c1ccc(F)cc1F` are 410 nM and 5.4 nM.
In experiment [1], `CNc1nc(C)c2cc(-c3cnc(OC)c(NS(=O)(=O)c4ccc(F)cc4F)c3)cc(OC3CCC3)c2n1` showed an IC50 of 4.1 nM.
In the case of `COc1ncc(-c2cc(OC3CCOCC3)c3nc(N)nc(C)c3c2)cc1NS(=O)(=O)c1ccc(F)cc1`, the half-inhibitory concentration (IC50) was determined as 96 nM in the experiment on NCI-H460 and 1.2 nM in experiment [1].
The like results for `CNc1nc(C)c2cc(-c3cnc(OC)c(NS(=O)(=O)c4ccc(F)cc4F)c3)cc(OCC3CCOCC3)c2n1` were, in that order, 400 nM and 1.8 nM.
The like results for `CCNc1nc(C)c2cc(-c3cnc(OC)c(NS(=O)(=O)c4ccc(F)cc4F)c3)cc(OC3CCOCC3)c2n1` were, in that order, 240 nM and 1.5 nM.
`COc1ncc(-c2cc(OC3CCOCC3)c3nc(N)nc(C)c3c2)cc1F`: the 50% inhibitory concentration (IC50) in the experiment with NCI-H460 came out at 1100 nM; in experiment [1], 16 nM.
The corresponding values for `COc1ncc(-c2cc(OC3CCCCC3)c3nc(N)nc(C)c3c2)cc1NS(=O)(=O)c1ccc(F)cc1F` are 96 nM and 0.95 nM.
The corresponding values for `COc1ncc(-c2cc(OCCN3CCOCC3)c3nc(N)nc(C)c3c2)cc1NS(=O)(=O)c1ccc(F)cc1F` are 1100 nM and 3.3 nM.
As for `COc1ncc(-c2cc(OC3CCOCC3)c3nc(N)nc(C)c3c2)cc1NS(=O)(=O)c1ccc(F)cc1Cl`, the IC50 was 17 nM in the experiment with NCI-H460 and 1.1 nM in experiment [1].
As for `COc1ncc(-c2cc(OC3CCC(F)(F)CC3)c3nc(N)nc(C)c3c2)cc1NS(=O)(=O)c1ccc(F)cc1F`, the IC50 in the experiment with NCI-H460 is 83 nM; in experiment [1], 1.6 nM.
The corresponding values for `COc1ncc(-c2cc(O[C@H]3CCOC3)c3nc(N)nc(C)c3c2)cc1NS(=O)(=O)c1ccc(F)cc1F` are 94 nM and 0.83 nM.
Consider `Cc1ncc(-c2cc(OC3CCOCC3)c3nc(N)nc(C)c3c2)cc1NS(=O)(=O)c1ccc(F)cc1F`, for which the half-maximal inhibitory concentration (IC50) stood at 2100 nM with NCI-H460 and 1.4 nM in experiment [1].
